Assay results from patent publication US20250241923A1, “A DUAL SELECTIVE PI3K DELTA AND GAMMA INHIBITORS AND/OR A SALT-INDUCIBLE KINASE 3 INHIBITOR FOR TREATING SOLID TUMORS” (Incozen Therapeutics Pvt. Ltd, priority 2022, published 2025).
“Also recorded” adds a separate entry of the source. Values belong to the compound of their own block, whether it stands above or below them.

Key:
PI3Kδ [1] = target: T1, PI3Kδ (Homo sapiens, UniProt O00329); assay: anti-FcεR1 induced CD63 expression in human whole blood; assay type: cell-based; parameters: endogenous in cells; host or cells: human whole blood (anti-FcεR1 induced CD63); conditions: whole blood from healthy human subjects; flow cytometry; read-out: EC50 of anti-FcεR1 (PI3Kδ) mediated CD63 expression
T1 sequence (O00329 whole entry, canonical isoform): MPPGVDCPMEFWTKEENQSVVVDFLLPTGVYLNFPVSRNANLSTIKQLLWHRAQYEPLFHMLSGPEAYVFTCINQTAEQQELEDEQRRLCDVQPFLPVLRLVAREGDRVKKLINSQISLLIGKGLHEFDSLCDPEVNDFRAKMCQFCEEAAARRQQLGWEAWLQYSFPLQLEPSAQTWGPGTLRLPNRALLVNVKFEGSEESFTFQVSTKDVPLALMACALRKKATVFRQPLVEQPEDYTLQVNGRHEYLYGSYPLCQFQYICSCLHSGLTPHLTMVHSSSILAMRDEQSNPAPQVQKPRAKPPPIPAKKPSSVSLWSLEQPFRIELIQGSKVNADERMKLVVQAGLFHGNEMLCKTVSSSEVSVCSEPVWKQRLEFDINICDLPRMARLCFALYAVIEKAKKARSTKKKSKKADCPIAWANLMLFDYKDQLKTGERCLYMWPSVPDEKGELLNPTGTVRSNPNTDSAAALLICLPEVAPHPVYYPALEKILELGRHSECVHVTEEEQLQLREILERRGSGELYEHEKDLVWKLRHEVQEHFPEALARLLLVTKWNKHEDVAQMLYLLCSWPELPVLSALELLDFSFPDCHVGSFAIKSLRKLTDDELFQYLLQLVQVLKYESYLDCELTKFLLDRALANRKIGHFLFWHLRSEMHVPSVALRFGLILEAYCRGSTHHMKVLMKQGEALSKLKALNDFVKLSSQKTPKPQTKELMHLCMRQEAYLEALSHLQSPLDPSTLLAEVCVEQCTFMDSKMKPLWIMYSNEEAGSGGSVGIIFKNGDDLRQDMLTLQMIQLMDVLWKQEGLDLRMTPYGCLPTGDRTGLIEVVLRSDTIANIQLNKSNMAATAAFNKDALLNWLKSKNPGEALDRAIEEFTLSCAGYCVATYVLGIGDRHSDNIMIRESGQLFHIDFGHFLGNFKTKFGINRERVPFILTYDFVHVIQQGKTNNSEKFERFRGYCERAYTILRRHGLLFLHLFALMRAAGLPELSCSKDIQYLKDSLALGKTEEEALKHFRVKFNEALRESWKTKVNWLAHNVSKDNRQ
T1 sequence (P27986 whole entry partner, canonical isoform): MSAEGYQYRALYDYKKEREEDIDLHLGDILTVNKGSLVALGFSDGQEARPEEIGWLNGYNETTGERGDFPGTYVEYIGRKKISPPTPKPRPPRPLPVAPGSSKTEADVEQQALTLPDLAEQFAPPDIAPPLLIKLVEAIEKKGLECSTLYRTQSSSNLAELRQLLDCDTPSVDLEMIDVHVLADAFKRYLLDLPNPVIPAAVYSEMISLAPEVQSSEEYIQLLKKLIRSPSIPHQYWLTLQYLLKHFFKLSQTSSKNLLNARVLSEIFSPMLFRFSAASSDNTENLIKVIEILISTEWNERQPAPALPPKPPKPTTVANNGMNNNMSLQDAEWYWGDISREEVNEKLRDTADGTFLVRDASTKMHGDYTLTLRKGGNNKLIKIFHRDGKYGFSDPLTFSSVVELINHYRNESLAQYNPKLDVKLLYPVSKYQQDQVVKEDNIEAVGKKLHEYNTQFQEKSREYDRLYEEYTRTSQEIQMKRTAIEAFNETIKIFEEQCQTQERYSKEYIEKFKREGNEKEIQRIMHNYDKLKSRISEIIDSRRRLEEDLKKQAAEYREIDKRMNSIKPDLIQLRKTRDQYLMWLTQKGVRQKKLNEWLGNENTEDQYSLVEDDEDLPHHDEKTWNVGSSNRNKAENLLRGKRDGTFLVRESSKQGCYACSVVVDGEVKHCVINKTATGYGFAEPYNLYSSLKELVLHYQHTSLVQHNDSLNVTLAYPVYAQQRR

PI3Kα = target: T2, PI3Kα (Mus musculus, UniProt P42337); assay: PI3K isoform cell-based assay: PI3K α-mediated phosphorylation of AKT in 3T3 fibroblasts; conditions: pAKT by PDGF or lysophosphatidic acid in 3T3 fibroblasts
T2 construct: endogenous in cells; host or cells: 3T3 fibroblasts (pAKT)

[2] = Tissue distribution upon single oral administration; assay type: in vivo; conditions: single oral administration 10 mg/kg bodyweight; male wistar rats
Description: Tissue distribution upon single oral administration (10 mg/kg bodyweight) of tenalisib was studied in male wistar rats. The rank order of Cmax and AUC in Wistar rats was liver>kidney>heart>plasma>thymus>spleen>serum>lung>blood>brain.

PI3Kγ [3] = target: T3, PI3Kγ (Homo sapiens, UniProt P48736); assay: PI3K isoform enzyme assay (HTRF), PI3Kγ; assay type: biochemical; conditions: 100 μM ATP
T3 sequence (P48736 whole entry, canonical isoform): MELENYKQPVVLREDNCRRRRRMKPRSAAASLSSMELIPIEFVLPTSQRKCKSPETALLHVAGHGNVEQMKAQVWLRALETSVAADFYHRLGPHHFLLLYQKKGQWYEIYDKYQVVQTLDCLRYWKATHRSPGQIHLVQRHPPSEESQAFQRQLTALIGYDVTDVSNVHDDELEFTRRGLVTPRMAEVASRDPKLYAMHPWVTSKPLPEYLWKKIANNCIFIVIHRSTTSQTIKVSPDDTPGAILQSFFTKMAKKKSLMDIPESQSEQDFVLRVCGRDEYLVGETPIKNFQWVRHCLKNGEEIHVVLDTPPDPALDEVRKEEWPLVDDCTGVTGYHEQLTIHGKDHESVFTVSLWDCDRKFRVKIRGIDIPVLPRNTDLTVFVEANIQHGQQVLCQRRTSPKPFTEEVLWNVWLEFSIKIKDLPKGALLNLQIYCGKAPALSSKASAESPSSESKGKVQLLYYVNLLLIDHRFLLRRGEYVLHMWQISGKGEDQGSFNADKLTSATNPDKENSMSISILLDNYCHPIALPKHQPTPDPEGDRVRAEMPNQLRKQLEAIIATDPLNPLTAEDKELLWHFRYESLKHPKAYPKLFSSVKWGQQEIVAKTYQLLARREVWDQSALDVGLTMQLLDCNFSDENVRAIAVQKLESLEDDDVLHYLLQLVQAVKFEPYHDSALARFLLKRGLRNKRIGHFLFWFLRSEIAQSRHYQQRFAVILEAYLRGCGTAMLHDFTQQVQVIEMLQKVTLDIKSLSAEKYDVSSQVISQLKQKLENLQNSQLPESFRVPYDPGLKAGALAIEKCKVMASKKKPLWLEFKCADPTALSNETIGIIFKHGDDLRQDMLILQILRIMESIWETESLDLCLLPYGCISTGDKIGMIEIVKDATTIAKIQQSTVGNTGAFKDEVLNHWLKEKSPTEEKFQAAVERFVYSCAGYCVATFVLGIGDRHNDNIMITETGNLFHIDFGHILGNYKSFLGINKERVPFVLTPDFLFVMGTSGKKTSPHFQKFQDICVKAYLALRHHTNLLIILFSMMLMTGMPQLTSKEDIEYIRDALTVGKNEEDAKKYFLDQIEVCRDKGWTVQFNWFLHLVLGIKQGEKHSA

PI3Kβ [4] = target: T4, PI3Kβ (Mus musculus, UniProt Q8BTI9); assay: PI3K isoform cell-based assay: PI3K β-mediated phosphorylation of AKT in 3T3 fibroblasts; conditions: pAKT by PDGF or lysophosphatidic acid in 3T3 fibroblasts
T4 construct: endogenous in cells; host or cells: 3T3 fibroblasts (pAKT)

[5] = Metabolic stability in liver microsomes, rank order across species; assay type: in vitro ADME, rat, human, dog, monkey, mouse
Description: (§1) Pharmacokinetic studies following single-dose and repeat dose administration were performed in mice, rats, dogs, humans and monkeys. Tenalisib plasma concentrations were determined by a validated LC-MS/MS method. The pharmacokinetic profile of tenalisib was evaluated following both oral and intravenous administration. […] In an in vitro study using liver microsomes, the metabolic stability followed a rank order of rat>human>dog>monkey>mouse.
(§2) In in vitro studies using liver microsomes, the metabolic stability of tenalisib followed the rank order of rat>human>dog>monkey>mouse (Table 3).

[6] = Pharmacokinetic studies, absorption and clearance across the tested species; assay type: in vivo, mice, rats, dogs, humans and monkeys
Description: as §1

PI3Kγ [7] = target: T5, PI3Kγ (Mus musculus, UniProt Q9JHG7); assay: PI3K isoform cell-based assay: c5a induced pAKT in RAW macrophages
T5 construct: endogenous in cells; host or cells: RAW macrophages (c5a induced pAKT)
T5 sequence (Q9JHG7 whole entry, canonical isoform): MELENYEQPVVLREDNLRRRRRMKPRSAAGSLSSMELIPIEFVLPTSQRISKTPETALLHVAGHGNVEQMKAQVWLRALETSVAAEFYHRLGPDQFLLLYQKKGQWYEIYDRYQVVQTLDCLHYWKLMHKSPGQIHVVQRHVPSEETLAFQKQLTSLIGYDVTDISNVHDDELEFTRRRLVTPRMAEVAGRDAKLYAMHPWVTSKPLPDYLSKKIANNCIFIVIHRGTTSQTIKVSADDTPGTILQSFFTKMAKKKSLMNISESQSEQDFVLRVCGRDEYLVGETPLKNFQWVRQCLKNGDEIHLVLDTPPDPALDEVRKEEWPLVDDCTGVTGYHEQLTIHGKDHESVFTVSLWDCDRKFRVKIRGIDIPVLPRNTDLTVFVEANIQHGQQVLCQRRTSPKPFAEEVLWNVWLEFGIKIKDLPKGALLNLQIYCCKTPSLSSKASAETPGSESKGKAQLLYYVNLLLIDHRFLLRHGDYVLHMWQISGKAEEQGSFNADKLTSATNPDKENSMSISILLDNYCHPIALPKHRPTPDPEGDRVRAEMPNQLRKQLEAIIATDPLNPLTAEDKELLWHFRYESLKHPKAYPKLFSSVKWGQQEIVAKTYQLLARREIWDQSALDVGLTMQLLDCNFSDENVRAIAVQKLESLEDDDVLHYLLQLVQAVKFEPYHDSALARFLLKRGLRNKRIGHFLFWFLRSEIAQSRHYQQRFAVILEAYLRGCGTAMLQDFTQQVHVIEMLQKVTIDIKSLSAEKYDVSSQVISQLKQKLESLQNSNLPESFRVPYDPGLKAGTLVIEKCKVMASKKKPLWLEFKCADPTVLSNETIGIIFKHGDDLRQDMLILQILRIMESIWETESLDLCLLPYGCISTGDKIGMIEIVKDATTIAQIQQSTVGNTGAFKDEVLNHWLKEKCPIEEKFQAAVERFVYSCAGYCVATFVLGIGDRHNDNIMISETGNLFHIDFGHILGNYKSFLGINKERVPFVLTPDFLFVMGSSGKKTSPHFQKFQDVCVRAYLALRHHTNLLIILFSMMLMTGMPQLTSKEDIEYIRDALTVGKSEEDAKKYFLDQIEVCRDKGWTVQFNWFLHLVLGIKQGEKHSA

plasma proteins [8] = assay: In vitro protein binding, dog plasma; assay type: in vitro ADME
Description: (§3) In vitro protein binding studies were performed using rat, dog, monkey and human plasma. Binding of tenalisib to plasma proteins was >96% across all species.

[9] = In vitro plasma stability, human plasma; assay type: in vitro ADME; conditions: LC-MS/MS
Description: (§4) In vitro plasma stability studies were performed using rat, dog, monkey and human plasma. The concentration of tenalisib was measured by LC-MS/MS.

[10] = Metabolic stability in liver microsomes, mouse; assay type: in vitro ADME
Description: as §2

[11] = In vitro plasma stability, monkey plasma; assay type: in vitro ADME; conditions: LC-MS/MS
Description: as §4

[12] = Metabolic stability in liver microsomes, monkey; assay type: in vitro ADME
Description: as §2

[13] = test system: MC38 syngeneic murine colon carcinoma; assay: MC38 syngeneic murine colon carcinoma C57BL/6 model; assay type: in vivo; conditions: day 22; daily tenalisib; C57BL/6 female mice
Description: Daily tenalisib alone and in combination with anti-PD-1 (clone: RMP1-14) was evaluated for tumor growth inhibition (TGI) in the MC38 syngeneic murine colon carcinoma model in immunocompetent C57BL/6 female mice.

[14] = Metabolic stability in liver microsomes, dog; assay type: in vitro ADME
Description: as §2

[15] = Pharmacokinetics, oral bioavailability in rats; assay type: in vivo; conditions: rat, plasma
Description: as §1

[16] = Metabolic stability in liver microsomes, rat; assay type: in vitro ADME
Description: as §2

PI3Kβ [17] = target: PI3Kβ (Homo sapiens, UniProt P42338); assay: PI3K isoform enzyme assay (HTRF), PI3Kβ; assay type: biochemical; conditions: 100 μM ATP
PI3Kβ (Homo sapiens, UniProt P42338), sequence (P42338 whole entry, canonical isoform): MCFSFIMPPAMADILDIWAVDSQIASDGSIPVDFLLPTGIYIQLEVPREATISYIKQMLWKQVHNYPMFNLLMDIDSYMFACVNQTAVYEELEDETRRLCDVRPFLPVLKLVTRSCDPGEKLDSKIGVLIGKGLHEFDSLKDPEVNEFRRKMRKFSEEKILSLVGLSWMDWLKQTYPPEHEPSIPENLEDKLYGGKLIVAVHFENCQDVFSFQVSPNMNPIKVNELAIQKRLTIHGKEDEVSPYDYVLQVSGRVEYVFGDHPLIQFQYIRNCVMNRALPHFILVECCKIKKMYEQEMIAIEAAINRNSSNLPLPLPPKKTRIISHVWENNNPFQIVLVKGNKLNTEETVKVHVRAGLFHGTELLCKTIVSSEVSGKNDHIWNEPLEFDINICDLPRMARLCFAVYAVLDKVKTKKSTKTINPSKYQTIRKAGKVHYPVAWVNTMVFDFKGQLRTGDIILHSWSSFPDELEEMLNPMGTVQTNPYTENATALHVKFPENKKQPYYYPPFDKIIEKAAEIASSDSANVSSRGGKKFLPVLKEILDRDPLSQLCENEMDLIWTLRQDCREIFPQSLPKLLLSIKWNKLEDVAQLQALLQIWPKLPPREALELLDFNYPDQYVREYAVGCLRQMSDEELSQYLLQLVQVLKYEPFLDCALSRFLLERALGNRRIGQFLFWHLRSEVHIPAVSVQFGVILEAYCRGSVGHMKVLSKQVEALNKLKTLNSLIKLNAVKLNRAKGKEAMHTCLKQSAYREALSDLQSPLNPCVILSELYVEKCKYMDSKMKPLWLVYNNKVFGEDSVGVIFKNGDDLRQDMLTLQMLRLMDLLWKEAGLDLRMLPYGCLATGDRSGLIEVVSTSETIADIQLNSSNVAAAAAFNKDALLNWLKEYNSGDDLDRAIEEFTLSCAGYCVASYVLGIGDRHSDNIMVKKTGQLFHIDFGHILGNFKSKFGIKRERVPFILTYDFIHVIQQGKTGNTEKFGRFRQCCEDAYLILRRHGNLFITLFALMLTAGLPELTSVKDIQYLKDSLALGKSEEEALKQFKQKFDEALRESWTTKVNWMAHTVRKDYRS
PI3Kβ (Homo sapiens, UniProt P42338), sequence (P27986 whole entry partner, canonical isoform): as the sequence (P27986 whole entry partner, canonical isoform) above

[18] = Pharmacokinetics, oral bioavailability in dogs; assay type: in vivo; conditions: dog, plasma
Description: as §1

plasma proteins [19] = assay: In vitro protein binding, monkey plasma; assay type: in vitro ADME
Description: as §3

PI3Kγ [20] = target: T3, PI3Kγ; assay: fMLP induced CD63 expression in human whole blood; assay type: cell-based; parameters: endogenous in cells; host or cells: human whole blood (fMLP induced CD63); conditions: whole blood from healthy human subjects; flow cytometry; read-out: EC50 of fMLP (PI3Kγ) mediated CD63 expression
[21] = test system: locally advanced or metastatic breast cancer; assay: Phase II randomized open label study in breast cancer patients; assay type: in vivo, human
Description: This is a Phase II, randomized, open label study, designed to evaluate the preliminary efficacy and safety of tenalisib (Compound A) at two dose levels (800 mg BID and 1200 mg BID) in 40 patients with locally advanced or metastatic breast cancer. 20 patients will be enrolled in each of Group 1 (tenalisib 800 mg BID) and Group 2 (tenalisib 1200 mg BID). Both groups will be run in parallel.
• 1. Provision of full informed consent prior to any study-specific procedures. • 2. Patients must be ≥18 years of age, at the time of signing informed consent. • 3. Female patients who have histologically and/or cytologically confirmed locally advanced or metastatic breast cancer that has progressed following at least one line of therapy. • 4. Patients with at least one measurable lesion per RECIST version 1.1 at baseline that can be accurately assessed by CT scan or MRI and is suitable for repeated assessment at follow up-visits. • 5. ECOG performance status 0 to 2. • 6. Life expectancy of at least 3 months. • 7. […] Female patient of childbearing potential should be willing to use a medically acceptable method of contraception as defined in Appendix B while participating in the study and for 30 days after the last dose of study drug AND must have a negative serum pregnancy test within 3 days prior to Cycle 1 Day 1 (C1D1). • 9. Ability to swallow and retain oral medication. • 10. Willingness and capability to comply with the study requirements.

PI3Kδ [22] = target: T1, PI3Kδ; assay: PI3K isoform enzyme assay (HTRF), PI3Kδ; assay type: biochemical
PI3Kδ [23] = target: T1, PI3Kδ; assay: PI3K isoform cell-based assay: anti-IgM induced human B-cell proliferation; parameters: endogenous in cells; host or cells: human B cells (anti-IgM proliferation); human whole blood (anti-FcεR1 induced CD63)
plasma proteins [24] = assay: In vitro protein binding, rat plasma; assay type: in vitro ADME
Description: as §3

[25] = Metabolic stability in liver microsomes, human; assay type: in vitro ADME
Description: as §2

[26] = In vitro plasma stability, dog plasma; assay type: in vitro ADME; conditions: LC-MS/MS
Description: as §4

[27] = In vitro plasma stability, rat plasma; assay type: in vitro ADME; conditions: LC-MS/MS
Description: as §4

[28] = Pharmacokinetics, oral bioavailability in mice; assay type: in vivo; conditions: mouse, plasma
Description: as §1

plasma proteins [29] = assay: In vitro protein binding, human plasma; assay type: in vitro ADME
Description: as §3

[30] = test system: ZR.75.1 breast cancer cell line; assay: Anti-proliferative effect of taxol (Example 10), ZR.75.1; assay type: cell-based; conditions: taxol alone (Example 10)
[31] = test system: MDA-MB-231 breast cancer cell line; assay: Anti-proliferative effect of taxol (Example 10), MDA-MB-231; assay type: cell-based; conditions: taxol alone (Example 10)
[32] = test system: MCF-7 breast cancer cell lines; assay: cells; conditions: Homo sapiens, MCF7, 72 h, read-out: growth inhibition
[33] = test system: SK-OV-3 ovarian cancer cell line; assay: Anti-proliferative effect of taxol and Compound (M) (Example 10), SK-OV-3; assay type: cell-based; conditions: Homo sapiens, taxol alone (6 nM, FIG. 7), read-out: growth inhibition
[34] = test system: MDA-MB-231 breast cancer cell lines; assay: cells; conditions: Homo sapiens, MDA-MB-231, 72 h, read-out: growth inhibition
[35] = test system: MCF-7 breast cancer cell line; assay: Anti-proliferative effect of taxol (Example 10), MCF-7; assay type: cell-based; conditions: taxol alone (Example 10)
[36] = test system: SK-OV-3 ovarian cancer cell lines; assay: Anti-proliferative activity with PARP inhibitors, SK-OV-3; assay type: cell-based; conditions: Homo sapiens, single agent talazoparib (3 μM, FIG. 6B), read-out: growth inhibition
[37] = test system: OVCAR-3 ovarian cancer cell lines; assay: Anti-proliferative activity with PARP inhibitors, OVCAR-3; assay type: cell-based; conditions: Homo sapiens, single agent talazoparib (0.1 μM, FIG. 6A), read-out: growth inhibition

EC50 (PI3Kδ [1]): 39 nM
EC50 (PI3Kα): > 10000 nM
IC50 (PI3Kγ [3]): 33.2 nM
EC50 (PI3Kβ [4]): 2070 nM
metabolic stability rank order [5]: rat>human>dog>monkey>mouse
Absorption [6]: rapid
clearance [6]: moderate
EC50 (PI3Kγ [7]): 22.3 nM
Binding to plasma proteins (plasma proteins [8]): > 96%
plasma stability [9]: stable
% Metabolic Stability [10]: 26.0%
plasma stability [11]: stable
% Metabolic Stability [12]: 29.6%
% Metabolic Stability [14]: 52.2%
bioavailability [15]: > 72.4%
% Metabolic Stability [16]: 79.3%
IC50 (PI3Kβ [17]): 4020 nM
bioavailability [18]: > 100%
Binding to plasma proteins (plasma proteins [19]): > 96%
EC50 (PI3Kγ [20]): 37.8 nM
IC50 (PI3Kδ [22]; HTRF, 100 μM ATP): 24.5 nM
selectivity over the α and β isoforms (cell-based assay) (PI3Kδ [23]; PI3K δ/γ versus PI3K α and β): selective
EC50 (PI3Kδ [23]; anti-IgM induced human B-cell proliferation): 38.1 nM
Binding to plasma proteins (plasma proteins [24]): > 96%
% Metabolic Stability [25]: 73.9%
plasma stability [26]: stable
plasma stability [27]: stable
bioavailability [28]: 21.6%
Binding to plasma proteins (plasma proteins [29]): > 96%
Structure (SMILES): CC[C@H](Nc1ncnc2[nH]cnc12)c1oc2ccccc2c(=O)c1-c1cccc(F)c1 [Compound A, (S)-2-(1-(9H-purin-6-ylamino)propyl)-3-(3-fluorophenyl)-4H-chromen-4-one]
rank order of Cmax and AUC in tissues [2]: liver>kidney>heart>plasma>thymus>spleen>serum>lung>blood>brain
TGI (Tumour Growth Inhibition) compared to control [13]: 29%
Clinical Benefit Rate, % (CBR = PR + CR + SD ≥24 weeks) ([21]; 800 mg BID (N = 20)): (55) %
Clinical Benefit Rate, n (CBR = PR + CR + SD ≥24 weeks) ([21]; 800 mg BID (N = 20)): 11
Disease Control rate (DCR), % ([21]; 800 mg BID (N = 20)): (65) %
Duration of Clinical Benefit, median ([21]; 800 mg BID (N = 20)): 9.36
Duration of Response (DOR) in ORR patients, median ([21]; 800 mg BID (N = 20)): 7.53
Duration of Treatment (DOT), median ([21]; 800 mg BID (N = 20)): 5.55
Objective Response rate (ORR), % ([21]; 800 mg BID (N = 20)): (10) %
Partial Response, % ([21]; 800 mg BID (N = 20)): (10) %
Progressive disease, % ([21]; 800 mg BID (N = 20)): (25) %
Stable disease, % ([21]; 800 mg BID (N = 20)): (55) %
Clinical Benefit Rate, % (CBR = PR + CR + SD ≥24 weeks) ([21]; 1200 mg BID (N = 20)): (60) %
Clinical Benefit Rate, n (CBR = PR + CR + SD ≥24 weeks) ([21]; 1200 mg BID (N = 20)): 12
Disease Control rate (DCR), % ([21]; 1200 mg BID (N = 20)): (70) %
Duration of Clinical Benefit, median ([21]; 1200 mg BID (N = 20)): 7.46
Duration of Response (DOR) in ORR patients, median ([21]; 1200 mg BID (N = 20)): 9.36
Duration of Treatment (DOT), median ([21]; 1200 mg BID (N = 20)): 5.63
Objective Response rate (ORR), % ([21]; 1200 mg BID (N = 20)): (15) %
Partial Response, % ([21]; 1200 mg BID (N = 20)): (15) %
Progressive disease, % ([21]; 1200 mg BID (N = 20)): (20) %
Stable disease, % ([21]; 1200 mg BID (N = 20)): (55) %
Clinical Benefit Rate, % (CBR = PR + CR + SD ≥24 weeks) ([21]; All (N = 40)): (57.5) %
Clinical Benefit Rate, n (CBR = PR + CR + SD ≥24 weeks) ([21]; All (N = 40)): 23
Disease Control rate (DCR), % ([21]; All (N = 40)): (67.5) %
Duration of Clinical Benefit, median ([21]; All (N = 40)): 7.46
Duration of Response (DOR) in ORR patients, median ([21]; All (N = 40)): 9.36
Duration of Treatment (DOT), median ([21]; All (N = 40)): 5.60
Objective Response rate (ORR), % ([21]; All (N = 40)): (12.5) %
Partial Response, % ([21]; All (N = 40)): (12.5) %
Progressive disease, % ([21]; All (N = 40)): (22.5) %
Stable disease, % ([21]; All (N = 40)): (55) %
selectivity over the α and β isoforms (enzyme assay) (PI3Kδ [22]; PI3K δ/γ versus PI3K α and β, listed as compound of formula (A)): several fold selectivity; also recorded: selective

Structure (SMILES): CC(=O)O[C@H]1C(=O)[C@@]2(C)[C@H]([C@H](OC(=O)c3ccccc3)[C@]3(O)C[C@H](OC(=O)[C@H](O)[C@@H](NC(=O)c4ccccc4)c4ccccc4)C(C)=C1C3(C)C)[C@]1(OC(C)=O)CO[C@@H]1C[C@@H]2O [Taxol]
growth inhibition [30]: 25.8%
growth inhibition [31]: 44.4%
inhibition at 0.003 µM [32]: 28.8%
inhibition at 0.006 µM [33]: 59.2%
inhibition at 0.003 µM [34]: 34.5%
growth inhibition [35]: 17.3%

Structure (SMILES): Cn1ncnc1[C@H]1c2n[nH]c(=O)c3cc(F)cc(c23)N[C@@H]1c1ccc(F)cc1 [talazoparib]
inhibition at 3 µM [36]: 50%
inhibition at 0.1 µM [37]: 40.2%
